Data set [1] relates to photosystem 2 photosynthetic electron transport (PET) in spinach chloroplasts. The arrangement: method as in doi:10.3139/113.110079. To be noted: literature surfactants; read-out: IC50 related to PET inhibition; cited from earlier work.
The test system of another data set is M. tuberculosis H37Rv. The data set can be described thus: in vitro antimycobacterial activity, microdilution panel method. The conditions noted are these: Mycobacterium tuberculosis, 336 h, Middlebrook 7H9, Alamar Blue after 14 days, read-out: MIC M. tuberculosis. It counts as cell-based, Mycobacterium tuberculosis.
For another data set, the system named is Vero cells. Briefly: in vitro cytotoxicity assay (MCC). It counts as cell-based, African Green Monkey. To be noted: highest tested concentration 100 µmol/L.
Data set [2] deals with photosystem 2 photosynthetic electron transport (PET) in spinach chloroplasts. The data set can be described thus: inhibition of photosynthetic electron transport (PET) in spinach chloroplasts (Hill reaction, DCPIP). The conditions noted are these: spinach chloroplasts, DCPIP photoreduction; read-out: IC50 (PET-inhibiting activity). It counts as biochemical, Spinacia oleracea L. The method, then: Chloroplasts were prepared from spinach (Spinacia oleracea L.) according to Masarovicova and Kralova. The inhibition of photosynthetic electron transport (PET) in spinach chloroplasts was determined spectrophotometrically (Genesys 6, Thermo Electron Scientific Instruments, Madison, WI, USA), using an artificial electron acceptor 2,6-dichlorophenol-indophenol (DCPIP) according to Kralova et al., and the rate of photosynthetic electron transport (PET) was monitored as a photoreduction of DCPIP. The measurements were carried out in phosphate buffer (0.02 mol/L, pH 7.2) containing sucrose (0.4 mol/L), MgCl2 (0.005 mol/L) and NaCl (0.015 mol/L). The chlorophyll content was 30 mg/L in these experiments and the samples were irradiated (~100 W/m^2 with 10 cm distance) with a halogen lamp (250 W) using a 4 cm water filter to prevent warming of the samples (suspension temperature 22 °C). The studied compounds were dissolved in DMSO due to their limited water solubility. […] The inhibitory efficiency of the studied compounds was expressed by IC50 values, i.e., by molar concentration of the compounds causing 50% PET inhibition relative to the untreated control.

Data set [3] is described as follows: determination of lipophilicity by HPLC (log k). The conditions noted are these: HPLC capacity factor, C18 column, MeOH 70% / H2O 30%.
Text: Instrumentation: Agilent Technologies 1200 SL liquid chromatograph with Diode-array Detector SL G1315C (Agilent Technologies Inc., Colorado Springs, CO, USA); pre-column ZORBAX XDB-C18 5 μm, 4 × 4 mm, Part No. 7995118-504 (Agilent Technologies Inc.) and column ZORBAX Eclipse XDB-C18 5 μm, 4.6 × 250 mm, Part No. 7995118-585 (Agilent Technologies Inc.). The separation process was controlled by Agilent ChemStation, version B.04.02 extended by spectral module (Agilent Technologies Inc.). Mobile phase consisted of MeOH (HPLC grade, 70%) and H2O (HPLC-Milli-Q Grade, 30%). Conditions: Flow rate 1.0 mL/min, sample injection volume 20 μL, column temperature 30 °C, detection wavelength 210 nm, monitor wavelength 270 nm. Retention times (tR) were measured in minutes. The dead time of the system (tD) was determined as the retention time of KI methanol solution. Capacity factors k for individual compounds were calculated according to the formula k = (tR − tD)/tD. Log k, calculated from the capacity factor k, is used as the lipophilicity index converted to log scale.
The test system of the next data set is Staphylococcus aureus. Briefly: in vitro antibacterial activity, microdilution broth method. It counts as cell-based. The method, then:
Microdilution broth method. Antibacterial evaluation was performed against bacterial strains from Czech Collection of Microorganisms (Brno, Czech Republic) (Staphylococcus aureus CCM 4516/08, Escherichia coli CCM 4517, Pseudomonas aeruginosa CCM 1961) or clinical isolates from Department of Clinical Microbiology, University Hospital and Faculty of Medicine in Hradec Králové, Charles University in Prague, Czech Republic (Staphylococcus aureus H 5996/08-methicilin resistant (MRSA), Staphylococcus epidermidis H 6966/08, Enterococcus sp. J 14365/08, Klebsiella pneumoniae D 11750/08, Klebsiella pneumoniae J 14368/08-ESBL positive). All strains were subcultured on Mueller-Hinton agar (MHA) (Difco/Becton Dickinson, Detroit, MI, USA) at 35 °C and maintained on the same medium at 4 °C. The compounds were dissolved in DMSO, and the antibacterial activity was determined in Mueller-Hinton liquid broth (Difco/Becton Dickinson), buffered to pH 7.0. Controls consisted of medium and DMSO alone. […] The standards were neomycin, bacitracin, penicillin G, ciprofloxacin and phenoxymethylpenicilin.

The subject of data set [4] is aromatic amino acids in spinach chloroplasts. The data set can be described thus: fluorescence of aromatic amino acids in spinach chloroplasts. The format is biochemical, Spinacia oleracea L. To be noted: excitation 275 nm, chlorophyll 10 mg/L. The method, then:
The fluorescence emission spectra of aromatic amino acids (AAA) in spinach chloroplasts were recorded on fluorescence spectrophotometer F-2000 (Hitachi, Tokyo, Japan) using excitation wavelength λex = 275 nm for monitoring AAA fluorescence, excitation slit 20 nm and emission slit 10 nm. The samples were kept in the dark for 2 min before measuring. The phosphate buffer used for dilution of the chloroplast suspension was the same as described above. Due to low aqueous solubility the compounds were added to chloroplast suspension in DMSO solution. The DMSO concentration in all samples was the same as in the control (10%). The chlorophyll concentration in chloroplast suspension was 10 mg/L.

We go through six compounds from PMC6272192, “Synthesis and Biological Evaluation of N-Alkyl-3-(alkylamino)-pyrazine-2-carboxamides” (Molecules, 2015).

Values after ≈ are worked out from the molar mass of the structure shown. Read-outs that look alike come from different tables or passages of the source.

Turning to `CN(C)CCNC(=O)C(=O)NCCN(C)C` [N,N'-bis(2-dimethylaminoethyl)ethanediamide], in data set [1], the IC50 is 4000 µM.

With `CCCCCCNC(=O)c1nccnc1NCCCCCC` [Compound 28, N-Hexyl-3-(hexylamino)pyrazine-2-carboxamide], the MIC in the data set with M. tuberculosis H37Rv is > 100 µg/mL. Besides, the “minimum compound concentration (MCC) causing microscopically detectable alteration of normal cell morphology” value with Vero cells is on record as > 4 µmol/L. In addition, the IC50 in data set [2] is 272 µM. In data set [3], this compound had a log k of 2.041.

As for `CCCCCCCCNC(=O)c1nccnc1NCCCCCCCC` [Compound 30, N-Octyl-3-(octylamino)pyrazine-2-carboxamide], the MIC in the data set with M. tuberculosis H37Rv was > 100 µg/mL. Besides, the “minimum compound concentration (MCC) causing microscopically detectable alteration of normal cell morphology” value in the data set with Vero cells turned out to be 100 µmol/L. For the same compound, the half-inhibitory concentration (IC50) in data set [2] was 752 µM. This compound showed a log k in data set [3] of 2.981.

As for `CCCCCCCCC[N+](C)(C)CCNC(=O)CCC(=O)NCC[N+](C)(C)CCCCCCCCC` [3,8-diaza-4,7-dioxodecane-1,10-diylbis(nonyldimethyl)ammonium bromide], the concentration for half-maximal inhibition (IC50) in data set [1] is 1740 µM.

On to `CCCCCCCCNc1nccnc1C(=O)NC` [Compound 16, N-Methyl-3-(octylamino)pyrazine-2-carboxamide], for which the values for the MIC in the data set on M. tuberculosis H37Rv and in the data set with Staphylococcus aureus were 25 µg/mL (≈ 94.6 µM) and 250 µM (≈ 66.1 µg/mL), respectively. Besides, in data set [2], the half-maximal inhibitory concentration (IC50) was 64 µM. The compound also showed a log k in data set [3] of 1.359. Besides, the “slope of dependence of aromatic amino acid fluorescence intensity (% of control) on compound concentration” value in data set [4] was −0.668.

For the compound `CCCCCNC(=O)c1nccnc1NCCCCC` [Compound 27, N-Pentyl-3-(pentylamino)pyrazine-2-carboxamide], the MIC in the data set on M. tuberculosis H37Rv was > 100 µg/mL. In addition, the concentration for half-maximal inhibition (IC50) in data set [2] turned out to be 105 µM. This compound also returned a log k in data set [3] of 1.557. The “slope of dependence of aromatic amino acid fluorescence intensity (% of control) on compound concentration” value in data set [4] was −0.211.
